In patent US11571411B2, “Use of a bisamide derivative of malonic acid for treating allergic and other diseases in humans and animals” (PHARMENTERPRISES ALLERGY LLC, priority 2018, dated 2023) one finds Ki data, which are given here for 1 molecule.

For orientation: Ki means a measure of affinity in units of concentration, obtained from inhibition or displacement.

For this experiment, the target named is T1, human histamine receptor type 4 (Homo sapiens, UniProt Q9H3N8).
T1 construct: expressed in transfected cells; host or cells: HEK-293 cells
T1 sequence (Q9H3N8 whole entry): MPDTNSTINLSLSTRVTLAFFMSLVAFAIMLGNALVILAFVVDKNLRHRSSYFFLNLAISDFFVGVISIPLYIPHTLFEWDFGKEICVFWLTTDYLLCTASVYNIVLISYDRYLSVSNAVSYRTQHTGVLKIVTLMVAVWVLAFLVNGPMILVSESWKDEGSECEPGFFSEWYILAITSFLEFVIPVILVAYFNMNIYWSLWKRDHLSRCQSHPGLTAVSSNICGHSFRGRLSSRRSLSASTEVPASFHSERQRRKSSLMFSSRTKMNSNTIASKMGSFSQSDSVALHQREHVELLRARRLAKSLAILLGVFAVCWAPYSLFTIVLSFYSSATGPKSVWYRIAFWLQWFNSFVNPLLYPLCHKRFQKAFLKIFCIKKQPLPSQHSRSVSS
Nature of the experiment: Binding of radiolabeled ligand [3H] histamine to histamine receptor type 4. Conditions: HEK-293 cells, [3H] histamine (10 nM).

With `O=C(CC(=O)NCCc1cnc[nH]1)NCCc1cnc[nH]1` [Compound I, N,N′-bis(2-(1H-imidazol-5-yl)ethyl)malonamide], affinity was put at a Ki of 16 µM.
